Among the data in patent publication US11427548B2 (Arvinas Operations, Inc., priority 2015, dated 2022) are Dmax and DC50 values, retold here.

Broadly, the Dmax is the greatest extent of degradation seen. In general, DC50 refers to the midpoint of the concentration-degradation curve.

The target of the assay is T1, Androgen Receptor (Homo sapiens, UniProt P10275).
T1 construct: endogenous in cells; host or cells: VCaP cells
T1 sequence (P10275 1-920): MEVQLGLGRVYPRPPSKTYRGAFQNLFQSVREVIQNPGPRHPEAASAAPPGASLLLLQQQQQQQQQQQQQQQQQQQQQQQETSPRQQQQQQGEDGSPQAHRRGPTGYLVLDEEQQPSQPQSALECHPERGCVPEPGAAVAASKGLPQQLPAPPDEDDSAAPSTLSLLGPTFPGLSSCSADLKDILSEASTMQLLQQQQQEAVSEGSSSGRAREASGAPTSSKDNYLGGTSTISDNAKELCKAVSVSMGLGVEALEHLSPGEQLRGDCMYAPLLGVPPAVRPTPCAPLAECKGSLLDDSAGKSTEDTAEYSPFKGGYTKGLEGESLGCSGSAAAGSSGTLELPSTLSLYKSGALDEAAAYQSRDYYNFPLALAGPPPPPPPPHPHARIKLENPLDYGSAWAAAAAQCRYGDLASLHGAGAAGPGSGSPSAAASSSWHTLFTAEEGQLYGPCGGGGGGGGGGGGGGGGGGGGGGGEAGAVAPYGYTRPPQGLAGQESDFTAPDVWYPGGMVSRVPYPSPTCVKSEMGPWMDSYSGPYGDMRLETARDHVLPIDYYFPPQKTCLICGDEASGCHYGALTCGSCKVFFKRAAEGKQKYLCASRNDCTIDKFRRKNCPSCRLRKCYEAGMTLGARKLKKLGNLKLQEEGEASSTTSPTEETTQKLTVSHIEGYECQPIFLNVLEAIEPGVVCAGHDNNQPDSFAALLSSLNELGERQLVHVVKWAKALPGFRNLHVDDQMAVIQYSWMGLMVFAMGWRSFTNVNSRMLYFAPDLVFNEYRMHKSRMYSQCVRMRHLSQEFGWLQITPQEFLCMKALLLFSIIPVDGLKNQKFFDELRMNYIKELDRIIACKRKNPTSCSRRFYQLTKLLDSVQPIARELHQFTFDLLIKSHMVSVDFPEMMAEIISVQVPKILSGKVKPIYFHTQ
Put plainly: Androgen Receptor ELISA assay (PathScan AR ELISA) in VCaP cells: AR degradation, Dmax and DC50. In kind it is cell-based. The method in brief:
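After 24 h exposure of VCaP cells (charcoal-stripped serum, 0.1 nM R1881 agonist, 0.1% DMSO) to seven half-log compound concentrations, residual AR in lysates was measured by PathScan ELISA (TMB absorbance, 450 nm). Cells were plated at 30,000/well and grown at least 3 days beforehand.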
Background: ELISA stands for enzyme-linked immunosorbent assay.

Where [1] appears, read: VCaP cells; concentration that caused 50% Androgen Receptor degradation; read-out: VCaP DC50.
[2] abbreviates: VCaP, VCaP cells; highest percentage of Androgen Receptor degradation; read-out: VCaP Dmax (%).
Setting [3] is: read-out: VCaP DC50; VCaP cells; concentration that caused 50% Androgen Receptor degradation.
The mark [4] stands for this setting: read-out: VCaP DC50; VCaP cells; Table 34.

The structures appear in SMILES notation. Where two headings read alike, the source gives them in different places.

`Cc1ncoc1-c1ccc(CNC(=O)[C@@H]2C[C@@H](O)CN2C(=O)[C@@H](NC(=O)CNCCCCCOc2ccc(C(=O)N[C@H]3C(C)(C)[C@H](Oc4ccc(C#N)c(Cl)c4)C3(C)C)cc2)C(C)(C)C)cc1` [Example 189, (2S,4R)-1-[(2S)-3,3-dimethyl-2-(2-{[5-(4-{[trans-3-(3-chloro-4-cyanophenoxy)-2,2,4,4-tetramethylcyclobutyl]carbamoyl}phenoxy)pentyl]amino}acetamido)butanoyl]-4-hydroxy-N-{[4-(4-methyl-1,3-oxazol-5-yl)phenyl]methyl)pyrrolidine-2-carboxamide]: under “VCaP, highest percentage of Androgen Receptor degradation observed, VCaP cells (Table 32); read-out: VCaP Dmax (%)”, the Dmax fell in the range of 51 to 70%. For the same compound, where the note is “concentration that caused 50% Androgen Receptor degradation, VCaP cells (Table 32); read-out: VCaP DC50”, the DC50 was < 0.05 µM.

`CC(C)(C)[C@H](NC(=O)COCCCCOc1ccc(-c2ccc(N3C(=S)N(c4cnc(C#N)c(C(F)(F)F)c4)C(=O)C3(C)C)cc2)cc1)C(=O)N1C[C@H](O)C[C@H]1C(=O)NCc1ccc(-c2cnco2)cc1` [Example 190, (2S,4R)-1-[(2S)-2-(2-{4-[4-(4-{3-[6-cyano-5-(trifluoromethyl)pyridin-3-yl]-5,5-dimethyl-4-oxo-2-sulfanylideneimidazolidin-1-yl}phenyl)phenoxy]butoxy}acetamido)-3,3-dimethylbutanoyl]-4-hydroxy-N-{[4-(1,3-oxazol-5-yl)phenyl]methyl}pyrrolidine-2-carboxamide]: the DC50 under setting [1] is < 0.05 µM. In addition, the Dmax under setting [2] is > 71%. The matching figures for `CC(C)(C)[C@H](NC(=O)COCCCCOc1ccc(-c2ccc(N3C(=S)N(c4cnc(C#N)c(Cl)c4)C(=O)C3(C)C)cc2)cc1)C(=O)N1C[C@H](O)C[C@H]1C(=O)NCc1ccc(-c2cnco2)cc1` [Example 191, (2S,4R)-1-[(2S)-2-{2-[4-(4-{4-[3-(5-chloro-6-cyanopyridin-3-yl)-5,5-dimethyl-4-oxo-2-sulfanylideneimidazolidin-1-yl]phenyl}phenoxy)butoxy]acetamido}-3,3-dimethylbutanoyl]-4-hydroxy-N-{[4-(1,3-oxazol-5-yl)phenyl]methyl}pyrrolidine-2-carboxamide]: < 0.05 µM and 51 to 70%. Turning to `Cc1ncoc1-c1ccc(CNC(=O)[C@@H]2C[C@@H](O)CN2C(=O)[C@@H](NC(=O)COCCCCOc2ccc(-c3ccc(N4C(=S)N(c5cnc(C#N)c(C(F)(F)F)c5)C(=O)C4(C)C)cc3)cc2)C(C)(C)C)cc1` [Example 192, (2S,4R)-1-[(2S)-2-(2-{4-[4-(4-{3-[6-cyano-5-(trifluoromethyl)pyridin-3-yl]-5,5-dimethyl-4-oxo-2-sulfanylideneimidazolidin-1-yl}phenyl)phenoxy]butoxy}acetamido)-3,3-dimethylbutanoyl]-4-hydroxy-N-{[4-(4-methyl-1,3-oxazol-5-yl)phenyl]methyl}pyrrolidine-2-carboxamide], the DC50 under setting [1] is < 0.05 µM. Under setting [2], the maximal degradation (Dmax) is > 71%. On to `Cc1ncsc1-c1ccc(CNC(=O)[C@@H]2C[C@@H](O)CN2C(=O)[C@@H](NC(=O)COCCCCOc2ccc(-c3ccc(N4C(=S)N(c5cnc(C#N)c(C(F)(F)F)c5)C(=O)C4(C)C)cc3)cc2)C(C)(C)C)cc1` [Example 193, (2S,4R)-1-[(2S)-2-(2-{4-[4-(4-{3-[6-cyano-5-(trifluoromethyl)pyridin-3-yl]-5,5-dimethyl-4-oxo-2-sulfanylideneimidazolidin-1-yl}phenyl)phenoxy]butoxy}acetamido)-3,3-dimethylbutanoyl]-4-hydroxy-N-{[4-(4-methyl-1,3-thiazol-5-yl)phenyl]methyl}pyrrolidine-2-carboxamide], for which the DC50 under setting [1] is < 0.05 µM. The Dmax under setting [2] was > 71%. As for `Cc1ncsc1-c1ccc([C@H](C)NC(=O)[C@@H]2C[C@@H](O)CN2C(=O)[C@@H](NC(=O)COCCCCOc2ccc(-c3ccc(N4C(=S)N(c5cnc(C#N)c(C(F)(F)F)c5)C(=O)C4(C)C)c(F)c3)cc2)C(C)(C)C)cc1` [Example 196, (2S,4R)-1-[(2S)-2-(2-{4-[4-(4-{3-[6-cyano-5-(trifluoromethyl)pyridin-3-yl]-5,5-dimethyl-4-oxo-2-sulfanylideneimidazolidin-1-yl}-3-fluorophenyl)phenoxy]butoxy}acetamido)-3,3-dimethylbutanoyl]-4-hydroxy-N-[(1S)-1-[4-(4-methyl-1,3-thiazol-5-yl)phenyl]ethyl]pyrrolidine-2-carboxamide], the DC50 under setting [1] was < 0.05 µM. Moreover, the Dmax under setting [2] was > 71%. The matching figures for `Cc1ncoc1-c1ccc(CNC(=O)[C@@H]2C[C@@H](O)CN2C(=O)[C@@H](NC(=O)COCCCCOc2ccc(-c3ccc(N4C(=S)N(c5cnc(C#N)c(C(F)(F)F)c5)C(=O)C45CCC5)cc3)cc2)C(C)(C)C)cc1` [Example 198, (2S,4R)-1-[(2S)-2-(2-{4-[4-(4-{7-[6-cyano-5-(trifluoromethyl)pyridin-3-yl]-8-oxo-6-sulfanylidene-5,7-diazaspiro[3.4]octan-5-yl}phenyl)phenoxy]butoxy}acetamido)-3,3-dimethylbutanoyl]-4-hydroxy-N-{[4-(4-methyl-1,3-oxazol-5-yl)phenyl]methyl}pyrrolidine-2-carboxamide]: < 0.05 µM and 51 to 70%.

Turning to `Cc1ncsc1-c1ccc(CNC(=O)[C@@H]2C[C@@H](O)CN2C(=O)[C@@H](NC(=O)COCCCCOc2ccc(-c3ccc(N4C(=S)N(c5cnc(C#N)c(C(F)(F)F)c5)C(=O)C45CCC5)cc3)cc2)C(C)(C)C)cc1` [Example 199, (2S,4R)-1-[(2S)-2-(2-{4-[4-(4-{7-[6-cyano-5-(trifluoromethyl)pyridin-3-yl]-8-oxo-6-sulfanylidene-5,7-diazaspiro[3.4]octan-5-yl}phenyl)phenoxy]butoxy}acetamido)-3,3-dimethylbutanoyl]-4-hydroxy-N-{[4-(4-methyl-1,3-thiazol-5-yl)phenyl]methyl}pyrrolidine-2-carboxamide], the half-maximal degradation concentration (DC50) under setting [1] is < 0.05 µM. Moreover, the Dmax under setting [2] lay in the range of 51 to 70%. For the compound `CC(C)(C)[C@H](NC(=O)COCC1CC2(C1)CC(COc1ccc(N3C(=S)N(c4ccc(C#N)c(Cl)c4)C(=O)C3(C)C)cc1)C2)C(=O)N1C[C@H](O)C[C@H]1C(=O)NCc1ccc(-c2cnco2)cc1` (some centres unmarked) [Example 200], the Dmax (VCaP, read-out: VCaP Dmax (%)) was > 71%. For the same compound, under setting [3], the DC50 was < 0.05 µM. The matching figures for `Cc1ncsc1-c1ccc(CNC(=O)[C@@H]2C[C@@H](O)CN2C(=O)[C@@H](NC(=O)COCC2CC3(C2)CC(COc2ccc(N4C(=S)N(c5ccc(C#N)c(C(F)(F)F)c5)C(=O)C45CCC5)cc2)C3)C(C)(C)C)cc1` (stereo partly drawn) [Example 203, (2S,4R)-1-[(2S)-2-[2-({6-[(4-{7-[4-cyano-3-(trifluoromethyl)phenyl]-8-oxo-6-sulfanylidene-5,7-diazaspiro[3.4]octan-5-yl}phenoxy)methyl]spiro[3.3]heptan-2-yl}methoxy)acetamido]-3,3-dimethylbutanoyl]-4-hydroxy-N-{[4-(4-methyl-1,3-thiazol-5-yl)phenyl]methyl} pyrrolidine-2-carboxamide]: > 71% and < 0.05 µM. As to `Cc1ncsc1-c1ccc(CNC(=O)[C@@H]2C[C@@H](O)CN2C(=O)[C@@H](NC(=O)CCOCCN2CCC(COc3ccc(N4C(=S)N(c5ccc(C#N)c(C(F)(F)F)c5)C(=O)C4(C)C)cc3)CC2)C(C)(C)C)cc1` [Example 313], the DC50 under setting [4] was < 0.05 µM. On to `Cc1ncsc1-c1ccc(CNC(=O)[C@@H]2C[C@@H](O)CN2C(=O)[C@H](C(C)C)N2CC(OCCOCCOc3ccc(N4C(=S)N(c5ccc(C#N)c(C(F)(F)F)c5)C(=O)C4(C)C)cc3)=CC2=O)cc1` [Example 314], for which the greatest degradation seen (Dmax) (VCaP, read-out: VCaP Dmax (%)) was < 25%. Also, under setting [4], the DC50 is 0.051 to 0.5 µM.

For `Cc1ncsc1-c1ccc(CNC(=O)[C@@H]2C[C@@H](O)CN2C(=O)[C@@H](NC(=O)CCCOCCCOCCOc2ccc(N3C(=S)N(c4ccc(C#N)c(C(F)(F)F)c4)C(=O)C3(C)C)cc2)C(C)(C)C)cc1` [Example 315], the Dmax (VCaP, read-out: VCaP Dmax (%)) lay in the range of 26 to 50%. Also, the DC50 under setting [4] was 0.051 to 0.5 µM.

Consider `Cc1ncsc1-c1ccc(CNC(=O)[C@@H]2C[C@@H](O)CN2C(=O)[C@@H](NC(=O)CNCCCCOCCCOc2ccc(N3C(=S)N(c4ccc(C#N)c(C(F)(F)F)c4)C(=O)C3(C)C)cc2)C(C)(C)C)cc1` [Example 316], for which, under “VCaP, read-out: VCaP Dmax (%)”, the Dmax lay in the range of 26 to 50%. In addition, under setting [4], the DC50 lay within 0.051 to 0.5 µM. The matching figures for `Cc1ncsc1-c1ccc(CNC(=O)[C@@H]2C[C@@H](O)CN2C(=O)[C@@H](NC(=O)CN(C)CCCCOCCCOc2ccc(N3C(=S)N(c4ccc(C#N)c(C(F)(F)F)c4)C(=O)C3(C)C)cc2)C(C)(C)C)cc1` [Example 317]: 26 to 50% and 0.051 to 0.5 µM.
